# pIC50: −log10 of the molar value. Where two headings read alike, the source gives them in different places.
# Experiments:
# [1] = target: T1, recombinant N-terminal GST-tagged human Rho kinase 1 (ROCK1, amino acids 1-535) (Homo sapiens, UniProt Q13464); assay: In vitro Rho kinase assay (luciferase-based ATP consumption), ROCK1; format: biochemical
# T1 construct: ROCK1, amino acids 1-535; purchased Invitrogen Inc. PV-3691
# Procedure, shortened: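 GST-ROCK1 (aa 1-535) at 0.82 μg/ml with 100 μg/ml S6 peptide and 3 µM ATP in Tris pH 7.5 buffer with MgCl2, CaCl2, EGTA, BSA; compound added after reaction start, 2 h at 30 °C. Remaining ATP read by luciferase luminescence; efficacy as percent of H-1152P positive control.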
# [2] = target: T2, recombinant N-terminal GST-tagged human Rho kinase 2 (ROCK2, amino acids 1-552) (Homo sapiens, UniProt O75116); assay: In vitro Rho kinase assay (luciferase-based ATP consumption), ROCK2; format: biochemical
# T2 construct: ROCK2, amino acids 1-552; purchased Invitrogen Inc. PV3759
# T2 sequence (O75116 1-552): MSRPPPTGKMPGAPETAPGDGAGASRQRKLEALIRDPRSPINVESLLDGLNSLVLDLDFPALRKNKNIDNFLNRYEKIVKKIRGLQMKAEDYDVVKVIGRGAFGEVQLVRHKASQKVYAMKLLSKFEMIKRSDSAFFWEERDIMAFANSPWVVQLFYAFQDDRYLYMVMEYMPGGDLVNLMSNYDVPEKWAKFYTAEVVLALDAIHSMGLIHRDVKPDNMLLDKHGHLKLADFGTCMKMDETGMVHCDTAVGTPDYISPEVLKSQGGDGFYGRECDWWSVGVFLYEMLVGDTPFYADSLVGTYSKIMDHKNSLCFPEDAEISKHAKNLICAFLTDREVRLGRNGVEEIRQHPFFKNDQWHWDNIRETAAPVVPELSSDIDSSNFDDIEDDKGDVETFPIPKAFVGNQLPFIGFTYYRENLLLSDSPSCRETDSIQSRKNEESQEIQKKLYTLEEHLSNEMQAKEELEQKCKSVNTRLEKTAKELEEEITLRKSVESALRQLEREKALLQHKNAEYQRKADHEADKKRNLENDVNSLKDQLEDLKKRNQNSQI
# Procedure, shortened: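 GST-ROCK2 (aa 1-552, 0.82 μg/ml) with 100 μg/ml S6 peptide and 3 µM ATP in Tris pH 7.5 buffer with MgCl2/CaCl2/EGTA/BSA, compound added just after reaction start, 2 h at 30 °C. Remaining ATP read by luciferase luminescence. Efficacy expressed as percentage of H-1152P positive control.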
# [3] = recombinant GST-tagged human ROCK1, luciferase-based ATP consumption, read-out: ROCK1 IC50
# [4] = recombinant GST-tagged human ROCK2, luciferase-based ATP consumption, read-out: ROCK2 IC50
# T1 sequence (Q13464 1-535): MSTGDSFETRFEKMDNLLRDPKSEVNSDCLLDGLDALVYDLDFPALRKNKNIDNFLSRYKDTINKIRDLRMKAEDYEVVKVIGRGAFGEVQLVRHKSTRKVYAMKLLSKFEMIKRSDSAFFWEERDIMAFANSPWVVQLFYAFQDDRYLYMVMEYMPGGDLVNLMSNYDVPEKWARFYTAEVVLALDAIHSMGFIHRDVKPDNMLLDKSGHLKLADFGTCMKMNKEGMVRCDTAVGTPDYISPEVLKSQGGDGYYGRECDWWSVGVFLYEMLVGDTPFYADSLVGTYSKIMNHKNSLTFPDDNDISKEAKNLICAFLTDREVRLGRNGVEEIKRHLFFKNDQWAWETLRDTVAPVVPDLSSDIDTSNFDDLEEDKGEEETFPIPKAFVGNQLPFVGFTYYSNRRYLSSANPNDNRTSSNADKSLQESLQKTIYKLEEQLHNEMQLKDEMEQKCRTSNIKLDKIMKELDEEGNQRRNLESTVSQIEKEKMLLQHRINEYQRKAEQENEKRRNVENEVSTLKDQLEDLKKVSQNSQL
"pIC50 [1, 3]","pIC50 [2, 4]",SMILES,"pIC50 ([1]; ROCK1 IC50, recombinant GST-tagged human ROCK1, luciferase-based ATP consumption)","pIC50 ([2]; ROCK2 IC50, recombinant GST-tagged human ROCK2, luciferase-based ATP consumption)"
< 5.30,> 5.30,"Cc1c(-c2ccnc(N)n2)sc2ccc(CNC(=O)c3ccc(Cl)c([N+](=O)[O-])c3)cc12 [Example 268, Cc1c(sc2ccc(CNC(═O)c3ccc(Cl)c(c3)[N+]([O−])═O)cc12)-c4ccnc(N)n4]",,
> 5.30,> 5.30,"Cc1c(-c2ccnc(N)n2)sc2ccc(CNC(=O)c3cc(Cl)ccc3[N+](=O)[O-])cc12 [Example 269, Cc1c(sc2ccc(CNC(═O)c3cc(Cl)ccc3[N+]([O−])═O)cc12)-c4ccnc(N)n4]",,
> 5.30,> 5.30,"Cc1c(-c2ccnc(N)n2)sc2ccc(CNC(=O)c3cccc(Br)n3)cc12 [Example 270, Cc1c(sc2ccc(CNC(═O)c3cccc(Br)n3)cc12)-c4ccnc(N)n4]",,
< 5.30,> 5.30,"Cc1c(-c2ccnc(N)n2)sc2ccc(CNC(=O)c3cncc(Br)c3)cc12 [Example 271, Cc1c(sc2ccc(CNC(═O)c3cncc(Br)c3)cc12)-c4ccnc(N)n4]",,
< 5.30,> 5.30,"Cc1c(-c2ccnc(N)n2)sc2ccc(CNC(=O)c3cc(F)c(F)cc3[N+](=O)[O-])cc12 [Example 272, Cc1c(sc2ccc(CNC(═O)c3cc(F)c(F)cc3[N+]([O−])═O)cc12)-c4ccnc(N)n4]",,
> 5.30,> 5.30,"Cc1c(-c2ccnc(N)n2)sc2ccc(CNC(=O)Cc3ccc(C(F)(F)F)cc3)cc12 [Example 273, Cc1c(sc2ccc(CNC(═O)Cc3ccc(cc3)C(F)(F)F)cc12)-c4ccnc(N)n4]",,
> 5.30,< 5.30,"Cc1c(-c2ccnc(N)n2)sc2ccc(CNC(=O)c3cc(Cl)c(O)c(Cl)c3)cc12 [Example 275, Cc1c(sc2ccc(CNC(═O)c3cc(Cl)c(O)c(Cl)c3)cc12)-c4ccnc(N)n4]",,
> 5.30,> 5.30,"Cc1c(-c2ccnc(N)n2)sc2ccc(CNC(=O)c3c(F)c(F)c(F)c(F)c3F)cc12 [Example 276, Cc1c(sc2ccc(CNC(═O)c3c(F)c(F)c(F)c(F)c3F)cc12)-c4ccnc(N)n4]",,
> 5.30,> 5.30,"COc1cc(OC)c(C(=O)NCc2ccc3sc(-c4ccnc(N)n4)c(C)c3c2)c(OC)c1 [Example 277, COc1cc(OC)c(C(═O)NCc2ccc3sc(c(C)c3c2)-c4ccnc(N)n4)c(OC)c1]",,
> 5.30,> 5.30,"COc1cc(OC)c(C(=O)NCc2ccc3sc(-c4ccnc(N)n4)c(C)c3c2)cc1OC [Example 278, COc1cc(OC)c(cc1OC)C(═O)NCc2ccc3sc(c(C)c3c2)-c4ccnc(N)n4]",,
< 5.30,> 5.30,"COc1cc(C(=O)NCc2ccc3sc(-c4ccnc(N)n4)c(C)c3c2)cc(OC)c1OC [Example 279, COc1cc(cc(OC)c1OC)C(═O)NCc2ccc3sc(c(C)c3c2)-c4ccnc(N)n4]",,
< 5.30,> 5.30,"COc1ccc(C(=O)NCc2ccc3sc(-c4ccnc(N)n4)c(C)c3c2)c(OC)c1OC [Example 280, COc1ccc(C(═O)NCc2ccc3sc(c(C)c3c2)-c4ccnc(N)n4)c(OC)c1OC]",,
< 5.30,> 5.30,"Cc1c(-c2ccnc(N)n2)sc2ccc(CNC(=O)c3ccccc3Cc3ccccc3)cc12 [Example 281, Cc1c(sc2ccc(CNC(═O)c3ccccc3Cc4ccccc4)cc12)-c5ccnc(N)n5]",,
< 5.30,< 5.30,"Cc1c(-c2ccnc(N)n2)sc2ccc(CNC(=O)c3cccc(Oc4ccccc4)c3)cc12 [Example 282, Cc1c(sc2ccc(CNC(═O)c3cccc(Oc4ccccc4)c3)cc12)-c5ccnc(N)n5]",,
> 5.30,< 5.30,"Cc1c(-c2ccnc(N)n2)sc2ccc(CNC(=O)c3ccccc3Oc3ccccc3)cc12 [Example 283, Cc1c(sc2ccc(CNC(═O)c3ccccc3Oc4ccccc4)cc12)-c5ccnc(N)n5]",,
< 5.30,> 5.30,"Cc1c(-c2ccnc(N)n2)sc2ccc(CNC(=O)c3ccc(Oc4ccccc4)cc3)cc12 [Example 284, Cc1c(sc2ccc(CNC(═O)c3ccc(Oc4ccccc4)cc3)cc12)-c5ccnc(N)n5]",,
< 5.30,> 5.30,"Cc1c(-c2ccnc(N)n2)sc2ccc(CNC(=O)c3ccc(-c4ccc(O)cc4)cc3)cc12 [Example 285, Cc1c(sc2ccc(CNC(═O)c3ccc(cc3)-c4ccc(O)cc4)cc12)-c5ccnc(N)n5]",,
< 5.30,< 5.30,"Cc1cc(C(=O)NCc2ccc3sc(-c4ccnc(N)n4)c(C)c3c2)ccc1Br [Example 286, Cc1cc(ccc1Br)C(═O)NCc2ccc3sc(c(C)c3c2)-c4ccnc(N)n4]",,

"pIC50 [1, 3]","pIC50 [2, 4]",SMILES,"pIC50 ([1]; ROCK1 IC50, recombinant GST-tagged human ROCK1, luciferase-based ATP consumption)","pIC50 ([2]; ROCK2 IC50, recombinant GST-tagged human ROCK2, luciferase-based ATP consumption)"
< 5.30,> 5.30,"Cc1ccc(C(=O)NCc2ccc3sc(-c4ccnc(N)n4)c(C)c3c2)cc1Br [Example 287, Cc1ccc(cc1Br)C(═O)NCc2ccc3sc(c(C)c3c2)-c4ccnc(N)n4]",,
> 5.30,> 5.30,"Cc1c(-c2ccnc(N)n2)sc2ccc(CNC(=O)Cc3ccc(Br)cc3)cc12 [Example 288, Cc1c(sc2ccc(CNC(═O)Cc3ccc(Br)cc3)cc12)-c4ccnc(N)n4]",,
> 5.30,< 5.30,"Cc1c(-c2ccnc(N)n2)sc2ccc(CNC(=O)C3CCCN3C(=O)OC(C)(C)C)cc12 (stereo not shown) [Example 289, Cc1c(sc2ccc(CNC(═O)[C]3CCCN3C(═O)OC(C)(C)C)cc12)-c4ccnc(N)n4]",,
< 5.30,< 5.30,"Cc1c(-c2ccnc(N)n2)sc2ccc(CNC(=O)C=Cc3ccccc3C(F)(F)F)cc12 [Example 290, Cc1c(sc2ccc(CNC(═O)C═Cc3ccccc3C(F)(F)F)cc12)-c4ccnc(N)n4]",,
< 5.30,> 5.30,"CCOc1ccc2ccccc2c1C(=O)NCc1ccc2sc(-c3ccnc(N)n3)c(C)c2c1 [Example 291, CCOc1ccc2ccccc2c1C(═O)NCc3ccc4sc(c(C)c4c3)-c5ccnc(N)n5]",,
> 5.30,< 5.30,"Cc1c(-c2ccnc(N)n2)sc2ccc(CNC(=O)C(NC(=O)OC(C)(C)C)C(C)C)cc12 (stereo not shown) [Example 292, CC(C)[C](NC(═O)OC(C)(C)C)C(═O)NCc1ccc2sc(c(C)c2c1)-c3ccnc(N)n3]",,
> 5.30,> 5.30,"Cc1c(-c2ccnc(N)n2)sc2ccc(CNC(=O)CCc3cccc(C(F)(F)F)c3)cc12 [Example 294, Cc1c(sc2ccc(CNC(═O)CCc3cccc(c3)C(F)(F)F)cc12)-c4ccnc(N)n4]",,
< 5.30,> 5.30,"Cc1nc(Br)sc1C(=O)NCc1ccc2sc(-c3ccnc(N)n3)c(C)c2c1 [Example 296, Cc1nc(Br)sc1C(═O)NCc2ccc3sc(c(C)c3c2)-c4ccnc(N)n4]",,
> 5.30,> 5.30,"Cc1c(-c2ccnc(N)n2)sc2ccc(CNC(=O)c3c4ccccc4cc4ccccc34)cc12 [Example 297, Cc1c(sc2ccc(CNC(═O)c3c4ccccc4cc5ccccc35)cc12)-c6ccnc(N)n6]",,
> 5.30,> 5.30,"Cc1c(-c2ccnc(N)n2)sc2ccc(CNC(=O)c3cc(C(C)C)cc(C(C)C)c3O)cc12 [Example 298, CC(C)c1cc(C(C)C)c(O)c(c1)C(═O)NCc2ccc3sc(c(C)c3c2)-c4ccnc(N)n4]",,
,,"Cc1c(-c2ccnc(N)n2)sc2ccc(CNC(=O)c3c(Cl)cc(Cl)cc3Cl)cc12 [Example 300, Cc1c(sc2ccc(CNC(═O)c3c(Cl)cc(Cl)cc3Cl)cc12)-c4ccnc(N)n4]",< 5.30,> 5.30
< 5.30,> 5.30,"COc1cc(C(=O)NCc2ccc3sc(-c4ccnc(N)n4)c(C)c3c2)c([N+](=O)[O-])cc1OC [Example 301, COc1cc(C(═O)NCc2ccc3sc(c(C)c3c2)-c4ccnc(N)n4)c(cc1OC)[N+]([O−])═O]",,
< 5.30,< 5.30,"Cc1c(-c2ccnc(N)n2)sc2ccc(CNC(=O)c3ccc(OCc4ccccc4)cc3)cc12 [Example 302, Cc1c(sc2ccc(CNC(═O)c3ccc(OCc4ccccc4)cc3)cc12)-c5ccnc(N)n5]",,
< 5.30,< 5.30,"Cc1c(-c2ccnc(N)n2)sc2ccc(CNC(=O)CCc3ccccc3Br)cc12 [Example 303, Cc1c(sc2ccc(CNC(═O)CCc3ccccc3Br)cc12)-c4ccnc(N)n4]",,
< 5.30,> 5.30,"Cc1c(-c2ccnc(N)n2)sc2ccc(CNC(=O)CCc3cccc(Br)c3)cc12 [Example 304, Cc1c(sc2ccc(CNC(═O)CCc3cccc(Br)c3)cc12)-c4ccnc(N)n4]",,
< 5.30,< 5.30,"Cc1c(-c2ccnc(N)n2)sc2ccc(CNC(=O)C3CCCCN3C(=O)OC(C)(C)C)cc12 (stereo not shown) [Example 305, Cc1c(sc2ccc(CNC(═O)[C]3CCCCN3C(═O)OC(C)(C)C)cc12)-c4ccnc(N)n4]",,
< 5.30,> 5.30,"Cc1c(-c2ccnc(N)n2)sc2ccc(CNC(=O)c3ccc(Oc4cccc(O)c4)cc3)cc12 [Example 306, Cc1c(sc2ccc(CNC(═O)c3ccc(Oc4cccc(O)c4)cc3)cc12)-c5ccnc(N)n5]",,

SMILES,"pIC50 [1, 3]","pIC50 [2, 4]","pIC50 ([1]; ROCK1 IC50, recombinant GST-tagged human ROCK1, luciferase-based ATP consumption)","pIC50 ([2]; ROCK2 IC50, recombinant GST-tagged human ROCK2, luciferase-based ATP consumption)"
"Cc1c(-c2ccnc(N)n2)sc2ccc(CNC(=O)C(C)c3ccc(CC(C)C)cc3)cc12 (stereo not shown) [Example 274, CC(C)Cc1ccc(cc1)C(C)C(═O)NCc2ccc3sc(c(C)c3c2)-c4ccnc(N)n4]",< 5.30,< 5.30,,
"CC1=NN(c2ccc(C(=O)NCc3ccc4sc(-c5ccnc(N)n5)c(C)c4c3)cc2)C(=O)C1 [Example 295, CC1═NN(C(═O)C1)c2ccc(cc2)C(═O)NCc3ccc4sc(c(C)c4c3)-c5ccnc(N)n5]",> 5.30,< 5.30,,
"CC(=O)NC(Cc1ccc(O)cc1)C(=O)NCc1ccc2sc(-c3ccnc(N)n3)c(C)c2c1 (stereo not shown) [Example 299, CC(═O)N[C](Cc1ccc(O)cc1)C(═O)NCc2ccc3sc(c(C)c3c2)-c4ccnc(N)n4]",< 5.30,< 5.30,,

# Source: patent US20080021026A1, “BENZOTHIOPHENE INHIBITORS OF RHO KINASE” (priority 2006, published 2008)
